Laboratory results from patent US9056999B2, “Ultraviolet-curable aqueous ink, ink cartridge, recording apparatus and recording method” (Fuji Xerox Co., Ltd., priority 2013, dated 2015).

Experiment: Solubility of thioxanthone compound and tertiary amine compound in water-soluble organic solvent at 25° C.
[1] = in 3-morpholino-1,2-propanediol
[2] = in 4-(2-hydroxyethyl)morpholine

| SMILES | solubility (25° C.) (in 2-(2-butoxyethoxy)ethanol) [mass %] | solubility (25° C.) (in 3-methylsulfolane) [mass %] | solubility (25° C.) [1] [mass %] | solubility (25° C.) (in 4-(2-aminoethyl)morpholine) [mass %] | solubility (25° C.) [2] [mass %] | solubility (25° C.) (in 4-acetylmorpholine) [mass %] | solubility (25° C.) (in 4-ethylmorpholine) [mass %] | solubility (25° C.) (in 4-hydroxypropylmorpholine) [mass %] |
| --- | --- | --- | --- | --- | --- | --- | --- | --- |
| CCc1cc(CC)c2sc3ccccc3c(=O)c2c1 [Kayacure DETX-S, 2,4-diethylthioxanthone] | 17 | 4 | 9 | 14 | 15 | 20 | – | – |
| CC(C)c1ccc2sc3ccccc3c(=O)c2c1 [2-isopropylthioxanthone] | – | – | – | – | – | – | 30 | – |
| CCOC(=O)c1ccc(N(C)C)cc1 [Kayacure EPA, 4-dimethylamino ethyl benzoate] | 30 | 18 | 30 | 30 | 30 | 35 | 40 | 18 |
| CCOC(=O)c1ccc(N(CC)CC)cc1 [4-diethylamino ethyl benzoate] | – | – | – | – | 27 | – | – | – |
